Measurements from patent US20250270198A1, “PYRIDONE COMPOUNDS AS TRPA1 INHIBITORS” (D. E. Shaw Research, LLC, priority 2022, published 2025).
Each block holds one compound with its values, some of them ahead of it.

Key:
human TRPA1 channel = human TRPA1 channel (Homo sapiens (Human), UniProt O75762); experiment: TRPA1 inhibitor activity, automated patch clamp (SyncroPatch); type: cell-based; conditions: CHO cells inducibly expressing human TRPA1, currents elicited by carvacrol (300 μM), holding potential −60 mV
Protocol: This assay was used to evaluate the disclosed compounds' inhibition activities against the human TRPA1 channel.
CHO cells inducibly expressing human TRPA1 were grown in DMEM containing 10% heat-inactivated FBS, 1 mM Sodium Pyruvate, 2 mM L-Glutamine, Zeocin (100 μg/ml) and Blasticidin (10 μg/ml). Expression was induced by addition of Doxycycline (1 μg/ml) 24 hours before experiments. Cells used for electrophysiology were plated in plastic culture flasks and grown at 37° C. in a 5% CO2-humidified tissue culture incubator per ChanPharm SOP. Stocks were maintained in cryogenic storage.
The cells were bathed in an extracellular solution containing 80 mM NaCl, 60 mM NMDG, 4 mM KCl, 2 mM CaCl2), 6 mM MgCl2, 5 mM Glucose. 10 mM HEPES, 3 mM HEDTA; pH adjusted to 7.4 with NaOH; 305-310 mOsm. All compounds were dissolved in DMSO at 30 mM. The internal solution contained 10 mM CsCl, 110 mM CsF, 10 mM NaCl, 10 mM EGTA, 10 mM HEPES, 4 mM MgATP, 0.25 mM NaGTP, 4 mM BAPTA; pH adjusted to 7.2 with CsOH; 285-290 mOsm. Compound stock solutions were freshly diluted with external solution to concentrations of 3 nM, 10 nM 30 nM, 100 nM, 300 nM, 1 μM, 3 μM, 10 μM, and 30 μM. The highest content of DMSO (0.1%) was present at 30 μM.
All experiments were performed at room temperature. Each cell acted as its own control. In preparation for a current recording session, intracellular solution (see above) was loaded into the intracellular compartments of the automated patch clamp platform SyncroPatch (Nanion) chip and the cell suspension was pipetted into the extracellular compartments. After establishment of a whole-cell configuration, membrane current recordings and compound application were enabled by means of the SyncroPatch. TRPA1 currents were elicited by application of carvacrol (300 μM) at a constant holding potential of −60 mV (see Table A below).
To determine IC50 values, AUC and peak values, obtained in the presence of a given compound concentration, were normalized to control values in absence of compound. Using DataControl384 (Nanion's proprietary software), IC50 values were derived by fitting the normalized data to the Hill equation.

hERG channel = hERG channel (Homo sapiens (Human), UniProt Q12809); experiment: hERG activity, automated patch clamp (SyncroPatch); type: cell-based; conditions: CHO-K1 cells stably expressing hERG, tail current at −50 mV, compounds at 50 μM and 100 μM
Protocol: This assay was used to evaluate the disclosed compounds' inhibition activities against the hERG channel.
CHO-K1 cells stably expressing hERG were grown in Ham's F-12 Medium with Glutamine containing 10% heat-inactivated FBS, 1% Penicillin/Streptomycin, Hygromycin (100 μg/ml), and G418 (100 μg/ml). Cells used for electrophysiology were plated in plastic culture flasks and grown at 37° C. in a 5% CO2-humidified incubator per ChanPharm SOP. Stocks were maintained in cryogenic storage.
The cells were bathed in an extracellular solution containing 140 mM NaCl, 4 mM KCl, 2 mM CaCl2), 1 mM MgCl2, 5 mM Glucose, and 10 mM HEPES; pH adjusted to 7.4 with NaOH; 295-305 mOsm. The internal solution contained 10 mM KCl, 110 mM KF, 10 mM NaCl, 10 mM EGTA, 10 mM HEPES; pH adjusted to 7.2 with KOH; 280-285 mOsm. All compounds were dissolved in DMSO at 30 mM. Compound stock solutions were freshly diluted with external solution to concentrations of 50 μM and 100 μM. The highest content of DMSO […].
All experiments were performed at room temperature. Each cell acted as its own control. In preparation for a recording session, intracellular solution (see above) was loaded into the intracellular compartments of the automated patch clamp platform SyncroPatch (Nanion) chip and the cell suspension was pipetted into the extracellular compartments. After establishment of a whole-cell configuration, membrane current recordings, and compound application were enabled by means of the SyncroPatch. hERG currents were elicited by a voltage pulse pattern with fixed amplitudes (depolarization: +20 mV amplitude, 300 ms duration; repolarization: −50 mV, 300 ms duration) repeated at 3 s intervals from a holding potential of −80 mV.
Data acquisition and analysis were performed using DataControl384 (Nanion's proprietary software). To determine the (percentage) inhibition, the last single pulse in the pulse train (i.e., the repolarization step to −50 mV; tail current) at a given compound concentration was used. AUC and peak values, obtained in the presence of compound, were normalized to control values in the absence of compound.

Sequence of human TRPA1 channel (O75762 whole entry): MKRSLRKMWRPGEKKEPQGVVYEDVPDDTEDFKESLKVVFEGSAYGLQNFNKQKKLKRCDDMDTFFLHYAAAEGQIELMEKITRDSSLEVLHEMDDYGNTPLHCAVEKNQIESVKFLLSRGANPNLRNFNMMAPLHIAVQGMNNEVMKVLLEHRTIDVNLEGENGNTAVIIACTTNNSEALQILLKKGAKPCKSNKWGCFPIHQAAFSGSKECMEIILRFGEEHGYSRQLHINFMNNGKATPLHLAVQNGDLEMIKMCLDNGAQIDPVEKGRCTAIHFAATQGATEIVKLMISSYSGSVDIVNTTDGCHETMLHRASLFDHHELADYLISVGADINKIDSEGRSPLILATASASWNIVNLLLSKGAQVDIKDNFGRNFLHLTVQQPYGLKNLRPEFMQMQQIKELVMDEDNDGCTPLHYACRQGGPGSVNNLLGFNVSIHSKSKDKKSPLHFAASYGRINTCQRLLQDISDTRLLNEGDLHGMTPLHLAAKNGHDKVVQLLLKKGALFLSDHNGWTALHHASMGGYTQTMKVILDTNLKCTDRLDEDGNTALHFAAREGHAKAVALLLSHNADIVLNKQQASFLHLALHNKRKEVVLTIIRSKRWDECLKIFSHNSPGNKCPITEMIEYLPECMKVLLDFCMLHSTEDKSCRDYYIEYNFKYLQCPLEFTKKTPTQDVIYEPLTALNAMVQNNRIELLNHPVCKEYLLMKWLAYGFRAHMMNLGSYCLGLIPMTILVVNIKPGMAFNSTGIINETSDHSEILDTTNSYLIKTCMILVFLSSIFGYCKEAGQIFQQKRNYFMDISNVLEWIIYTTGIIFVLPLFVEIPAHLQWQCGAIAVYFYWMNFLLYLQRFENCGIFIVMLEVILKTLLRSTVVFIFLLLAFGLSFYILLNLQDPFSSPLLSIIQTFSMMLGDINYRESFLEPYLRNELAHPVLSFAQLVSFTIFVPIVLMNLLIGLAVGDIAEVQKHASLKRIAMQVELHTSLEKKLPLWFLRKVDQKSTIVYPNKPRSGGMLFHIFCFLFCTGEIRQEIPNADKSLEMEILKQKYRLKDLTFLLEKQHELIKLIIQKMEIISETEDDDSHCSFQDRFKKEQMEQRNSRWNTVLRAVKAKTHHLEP
Sequence of hERG channel (Q12809 whole entry): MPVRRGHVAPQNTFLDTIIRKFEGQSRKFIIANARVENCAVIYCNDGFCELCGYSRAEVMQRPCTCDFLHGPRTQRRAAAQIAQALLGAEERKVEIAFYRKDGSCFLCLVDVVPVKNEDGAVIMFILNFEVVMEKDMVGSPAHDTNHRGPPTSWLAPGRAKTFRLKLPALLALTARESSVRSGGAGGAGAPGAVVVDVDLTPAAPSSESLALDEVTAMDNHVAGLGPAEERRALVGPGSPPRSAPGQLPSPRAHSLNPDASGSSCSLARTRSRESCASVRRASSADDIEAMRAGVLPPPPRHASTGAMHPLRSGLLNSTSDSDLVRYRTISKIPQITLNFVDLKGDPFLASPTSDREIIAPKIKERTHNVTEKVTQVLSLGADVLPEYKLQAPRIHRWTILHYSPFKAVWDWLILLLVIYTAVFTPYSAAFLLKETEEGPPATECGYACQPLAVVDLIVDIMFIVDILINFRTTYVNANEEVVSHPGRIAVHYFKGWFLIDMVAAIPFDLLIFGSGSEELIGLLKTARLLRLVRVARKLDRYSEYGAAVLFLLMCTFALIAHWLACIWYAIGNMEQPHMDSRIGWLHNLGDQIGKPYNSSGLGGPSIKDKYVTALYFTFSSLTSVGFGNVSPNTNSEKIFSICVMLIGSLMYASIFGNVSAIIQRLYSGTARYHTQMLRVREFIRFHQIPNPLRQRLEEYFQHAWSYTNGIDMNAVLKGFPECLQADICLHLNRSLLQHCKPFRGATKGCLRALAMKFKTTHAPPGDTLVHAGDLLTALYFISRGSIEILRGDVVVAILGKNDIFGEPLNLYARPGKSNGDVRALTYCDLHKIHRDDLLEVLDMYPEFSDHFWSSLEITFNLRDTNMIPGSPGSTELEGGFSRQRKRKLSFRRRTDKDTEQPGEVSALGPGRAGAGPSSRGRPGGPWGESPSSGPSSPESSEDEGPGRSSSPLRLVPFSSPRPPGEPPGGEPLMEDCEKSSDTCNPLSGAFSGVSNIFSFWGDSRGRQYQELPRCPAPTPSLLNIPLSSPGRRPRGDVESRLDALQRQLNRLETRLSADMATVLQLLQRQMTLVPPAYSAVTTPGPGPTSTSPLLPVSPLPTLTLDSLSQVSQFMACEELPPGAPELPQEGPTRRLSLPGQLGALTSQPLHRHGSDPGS

SMILES: Nc1ccn(Cc2nc(C[C@H](O)c3ccc(Cl)cc3)no2)c(=O)c1Cl [Compound 14, (S)-4-amino-3-chloro-1-((3-(2-(4-chlorophenyl)-2-hydroxyethyl)-1,2,4-oxadiazol-5-yl)methyl)pyridin-2(1H)-one]
IC50 (human TRPA1 channel; Table 4): < 3 µM | IC50 (hERG channel; Table 4): > 50 µM

SMILES: Cn1cc(-c2ccn(Cc3nc(C[C@H](O)c4ccc(Cl)cc4)no3)c(=O)c2Cl)cn1 [Compound 18, (S)-3-chloro-1-((3-(2-(4-chlorophenyl)-2-hydroxyethyl)-1,2,4-oxadiazol-5-yl)methyl)-4-(1-methyl-1H-pyrazol-4-yl)pyridin-2(1H)-one]
IC50 (human TRPA1 channel; Table 4): < 1 µM | IC50 (hERG channel; Table 4): < 50 µM

SMILES: O=c1c(Cl)c(CO)ccn1Cc1nc(C[C@H](O)c2ccc(Cl)cc2)no1 [Compound 17, (S)-3-chloro-1-((3-(2-(4-chlorophenyl)-2-hydroxyethyl)-1,2,4-oxadiazol-5-yl)methyl)-4-(hydroxymethyl)pyridin-2(1H)-one]
IC50 (human TRPA1 channel; Table 4): < 1 µM | IC50 (hERG channel; Table 4): > 50 µM

SMILES: Cc1nc(C(N)=O)cn(Cc2nc(C[C@H](O)c3ccc(Cl)cc3)no2)c1=O [Compound 29, 4-({3-[(2S)-2-(4-chlorophenyl)-2-hydroxyethyl]-1,2,4-oxadiazol-5-yl}methyl)-6-methyl-5-oxopyrazine-2-carboxamide]
IC50 (human TRPA1 channel; Table 4): < 0.3 µM | IC50 (hERG channel; Table 4): > 50 µM

SMILES: NC(=O)c1cn(Cc2nc(C[C@H](O)c3ccc(Cl)cc3)no2)c(=O)c(Cl)n1 [Compound 26, (S)-6-chloro-4-((3-(2-(4-chlorophenyl)-2-hydroxyethyl)-1,2,4-oxadiazol-5-yl)methyl)-5-oxo-4,5-dihydropyrazine-2-carboxamide]
IC50 (human TRPA1 channel; Table 4): < 1 µM | IC50 (hERG channel; Table 4): > 50 µM

SMILES: Cc1nc(Br)cn(Cc2nc(C[C@H](O)c3ccc(Cl)cc3)no2)c1=O [Compound 27, (S)-5-bromo-1-((3-(2-(4-chlorophenyl)-2-hydroxyethyl)-1,2,4-oxadiazol-5-yl)methyl)-3-methylpyrazin-2(1H)-one]
IC50 (human TRPA1 channel; Table 4): < 0.3 µM | IC50 (hERG channel; Table 4): < 50 µM

SMILES: Cc1c(CN)ncn(Cc2nc(CCc3ccc(Cl)cc3)no2)c1=O [Compound 30, 6-(aminomethyl)-3-((3-(4-chlorophenethyl)-1,2,4-oxadiazol-5-yl)methyl)-5-methylpyrimidin-4(3H)-one]
IC50 (human TRPA1 channel; Table 4): < 0.3 µM | IC50 (hERG channel; Table 4): < 50 µM

SMILES: O=c1c(Cl)c(-c2cn[nH]c2)ncn1Cc1nc(C[C@H](O)c2ccc(Cl)cc2)no1 [Compound 35, (S)-5-chloro-3-((3-(2-(4-chlorophenyl)-2-hydroxyethyl)-1,2,4-oxadiazol-5-yl)methyl)-6-(1H-pyrazol-4-yl)pyrimidin-4(3H)-one]
IC50 (human TRPA1 channel; Table 4): < 0.3 µM | IC50 (hERG channel; Table 4): < 50 µM

SMILES: Cc1ncn(Cc2nc(C[C@H](O)c3ccc(Cl)cc3)no2)c(=O)c1Cl [Compound 36, (S)-5-chloro-3-((3-(2-(4-chlorophenyl)-2-hydroxyethyl)-1,2,4-oxadiazol-5-yl)methyl)-6-methylpyrimidin-4(3H)-one]
IC50 (human TRPA1 channel; Table 4): < 0.1 µM | IC50 (hERG channel; Table 4): > 50 µM

SMILES: Cc1cc(C(N)=O)cn(Cc2nc(CCc3ccc(Cl)cc3)no2)c1=O [Compound 4, 1-({3-[2-(4-chlorophenyl)ethyl]-1,2,4-oxadiazol-5-yl}methyl)-5-methyl-6-oxopyridine-3-carboxamide]
IC50 (human TRPA1 channel; Table 4): < 1 µM | IC50 (hERG channel; Table 4): > 50 µM

SMILES: Cc1cc(-c2cn[nH]c2)cn(Cc2nc(CCc3ccc(Cl)cc3)no2)c1=O [Compound 8, 1-((3-(4-chlorophenethyl)-1,2,4-oxadiazol-5-yl)methyl)-3-methyl-5-(1H-pyrazol-4-yl)pyridin-2(1H)-one]
IC50 (human TRPA1 channel; Table 4): < 10 µM | IC50 (hERG channel; Table 4): < 50 µM

SMILES: O=c1c(Cl)nccn1Cc1nc(C[C@H](O)c2ccc(Cl)cc2)no1 [Compound 22, (S)-3-chloro-1-((3-(2-(4-chlorophenyl)-2-hydroxyethyl)-1,2,4-oxadiazol-5-yl)methyl)pyrazin-2(1H)-one]
IC50 (human TRPA1 channel; Table 4): < 0.3 µM | IC50 (hERG channel; Table 4): < 50 µM

Second part, led by results:

IC50 (human TRPA1 channel; Table 5): < 0.3 µM
SMILES: Cc1c(-c2cn[nH]c2)ncn(Cc2nc(C[C@H](O)c3ccc(Cl)cc3)no2)c1=O [Compound 65, (S)-3-((3-(2-(4-chlorophenyl)-2-hydroxyethyl)-1,2,4-oxadiazol-5-yl)methyl)-5-methyl-6-(1H-pyrazol-4-yl)pyrimidin-4(3H)-one]
IC50 (hERG channel; Table 5): < 50 µM

IC50 (human TRPA1 channel; Table 5): < 0.1 µM
SMILES: O=c1c(Br)c(Cl)ncn1Cc1nc(C[C@H](O)c2ccc(Cl)cc2)no1 [Compound 67, (S)-5-bromo-6-chloro-3-((3-(2-(4-chlorophenyl)-2-hydroxyethyl)-1,2,4-oxadiazol-5-yl)methyl)pyrimidin-4(3H)-one]
IC50 (hERG channel; Table 5): < 50 µM

IC50 (human TRPA1 channel; Table 5): < 0.3 µM
SMILES: O=c1c(Cl)c(CO)ncn1Cc1nc(C[C@H](O)c2ccc(Cl)cc2)no1 [Compound 54, (S)-5-chloro-3-((3-(2-(4-chlorophenyl)-2-hydroxyethyl)-1,2,4-oxadiazol-5-yl)methyl)-6-(hydroxymethyl)pyrimidin-4(3H)-one]
IC50 (hERG channel; Table 5): > 50 µM

IC50 (human TRPA1 channel; Table 5): < 0.3 µM
SMILES: Nc1c(Cl)ncn(Cc2nc(C[C@H](O)c3ccc(Cl)cc3)no2)c1=O [Compound 66, (S)-5-amino-6-chloro-3-((3-(2-(4-chlorophenyl)-2-hydroxyethyl)-1,2,4-oxadiazol-5-yl)methyl)pyrimidin-4(3H)-one]
IC50 (hERG channel; Table 5): > 50 µM

IC50 (human TRPA1 channel; Table 5): < 0.1 µM
SMILES: Cc1c(Cl)ncn(Cc2nc(C[C@H](O)c3ccc(Cl)cc3)no2)c1=O [Compound 58, (S)-6-chloro-3-((3-(2-(4-chlorophenyl)-2-hydroxyethyl)-1,2,4-oxadiazol-5-yl)methyl)-5-methylpyrimidin-4(3H)-one]
IC50 (hERG channel; Table 5): > 50 µM

IC50 (human TRPA1 channel; Table 5): < 0.3 µM
SMILES: COc1ncn(Cc2nc(C[C@H](O)c3ccc(Cl)cc3)no2)c(=O)c1Cl [Compound 70, (S)-5-chloro-3-((3-(2-(4-chlorophenyl)-2-hydroxyethyl)-1,2,4-oxadiazol-5-yl)methyl)-6-methoxypyrimidin-4(3H)-one]
IC50 (hERG channel; Table 5): > 50 µM

IC50 (human TRPA1 channel; Table 5): < 0.1 µM
SMILES: N#Cc1ncn(Cc2nc(C[C@H](O)c3ccc(Cl)cc3)no2)c(=O)c1Cl [Compound 63, 5-chloro-1-({3-[(2S)-2-(4-chlorophenyl)-2-hydroxyethyl]-1,2,4-oxadiazol-5-yl}methyl)-6-oxopyrimidine-4-carbonitrile]
IC50 (hERG channel; Table 5): < 50 µM

IC50 (human TRPA1 channel; Table 5): < 0.1 µM
SMILES: O=c1c(Cl)cnc(CO)n1Cc1nc(C[C@H](O)c2ccc(Cl)cc2)no1 [Compound 73, (S)-5-chloro-3-((3-(2-(4-chlorophenyl)-2-hydroxyethyl)-1,2,4-oxadiazol-5-yl)methyl)-2-(hydroxymethyl)pyrimidin-4(3H)-one]
IC50 (hERG channel; Table 5): > 50 µM

IC50 (human TRPA1 channel; Table 5): < 0.1 µM
SMILES: Nc1ncc(Cl)c(=O)n1Cc1nc(C[C@H](O)c2ccc(Cl)cc2)no1 [Compound 71, (S)-2-amino-5-chloro-3-((3-(2-(4-chlorophenyl)-2-hydroxyethyl)-1,2,4-oxadiazol-5-yl)methyl)pyrimidin-4(3H)-one]
IC50 (hERG channel; Table 5): > 50 µM
